Assay results: ChEMBL document CHEMBL5260810, “Inhibition of bromodomain-containing protein 9 for the prevention of epigenetically-defined drug resistance” (Bioorg Med Chem Lett, 2017)
pIC50, pKd: −log10 of the molar value.

tested on: AMO1; assay: Cytotoxicity against human AMO1 cells measured after 8 days; format: functional, cell-based; conditions: AMO1, 192 h

SMILES | pIC50
C/C=C/Cn1cc(-c2ccc(C(=O)N3CCOCC3)cc2)c2cc[nH]c2c1=O | 4.70

tested on: EB-3; assay: Cytotoxicity against human EB-3 cells measured after 8 days; format: functional, cell-based; conditions: EB-3, 192 h

SMILES | pIC50
C/C=C/Cn1cc(-c2ccc(C(=O)N3CCOCC3)cc2)c2cc[nH]c2c1=O | 4.70

tested on: not listed separately; assay: Cytotoxicity against human MOLM16 cells measured after 8 days; format: functional, cell-based, MOLM-16; conditions: MOLM16, 192 h

SMILES | pIC50
C/C=C/Cn1cc(-c2ccc(C(=O)N3CCOCC3)cc2)c2cc[nH]c2c1=O | 5.02

tested on: NCI-H1355; assay: Cytotoxicity against human NCI-H1355 cells measured after 8 days; format: functional, cell-based; conditions: NCI-H1355, 192 h

SMILES | pIC50
C/C=C/Cn1cc(-c2ccc(C(=O)N3CCOCC3)cc2)c2cc[nH]c2c1=O | 4.70

tested on: not listed separately; assay: Cytotoxicity against human NCI-H2023 cells measured after 8 days; format: functional, cell-based; conditions: NCI-H2023, 192 h

SMILES | pIC50
C/C=C/Cn1cc(-c2ccc(C(=O)N3CCOCC3)cc2)c2cc[nH]c2c1=O | 4.70

tested on: not listed separately; assay: Cytotoxicity against human NCI-H2110 cells measured after 8 days; format: functional, cell-based; conditions: NCI-H2110, 192 h

SMILES | pIC50
C/C=C/Cn1cc(-c2ccc(C(=O)N3CCOCC3)cc2)c2cc[nH]c2c1=O | 4.70

tested on: NCI-H82; assay: Cytotoxicity against human NCI-H82 cells measured after 8 days; format: functional, cell-based; conditions: NCI-H82, 192 h

SMILES | pIC50
C/C=C/Cn1cc(-c2ccc(C(=O)N3CCOCC3)cc2)c2cc[nH]c2c1=O | 4.70

tested on: RERF-LC-MS; assay: Cytotoxicity against human RERF-LC-MS cells measured after 8 days; format: functional, cell-based; conditions: 192 h

SMILES | pIC50
C/C=C/Cn1cc(-c2ccc(C(=O)N3CCOCC3)cc2)c2cc[nH]c2c1=O | 4.70

tested on: ONS-76; assay: Cytotoxicity against human ONS-76 cells measured after 8 days; format: functional, cell-based; conditions: ONS-76, 192 h

SMILES | pIC50
C/C=C/Cn1cc(-c2ccc(C(=O)N3CCOCC3)cc2)c2cc[nH]c2c1=O | 4.70

tested on: HCC38; assay: Cytotoxicity against human HCC38 cells measured after 8 days; format: functional, cell-based; conditions: HCC38, 192 h

SMILES | pIC50
C/C=C/Cn1cc(-c2ccc(C(=O)N3CCOCC3)cc2)c2cc[nH]c2c1=O | 4.70

tested on: not listed separately; assay: Cytotoxicity against human OV7 cells measured after 8 days; format: functional, cell-based; conditions: OV7, 192 h

SMILES | pIC50
C/C=C/Cn1cc(-c2ccc(C(=O)N3CCOCC3)cc2)c2cc[nH]c2c1=O | 4.70

tested on: not listed separately; assay: Cytotoxicity against human OVCAR433 cells measured after 8 days; format: functional, cell-based; conditions: OVCAR433, 192 h

SMILES | pIC50
C/C=C/Cn1cc(-c2ccc(C(=O)N3CCOCC3)cc2)c2cc[nH]c2c1=O | 4.70

tested on: SK-BR-3; assay: Cytotoxicity against human SK-BR-3 cells measured after 8 days; format: functional, cell-based; conditions: SK-BR-3, 192 h

SMILES | pIC50
C/C=C/Cn1cc(-c2ccc(C(=O)N3CCOCC3)cc2)c2cc[nH]c2c1=O | 4.70

tested on: not listed separately; assay: Cytotoxicity against human ATRFLOX cells measured after 8 days; format: functional, cell-based; conditions: 192 h

SMILES | pIC50
C/C=C/Cn1cc(-c2ccc(C(=O)N3CCOCC3)cc2)c2cc[nH]c2c1=O | 4.70

tested on: COLO 205; assay: Cytotoxicity against human COLO 205 cells measured after 8 days; format: functional, cell-based; conditions: COLO 205, 192 h

SMILES | pIC50
C/C=C/Cn1cc(-c2ccc(C(=O)N3CCOCC3)cc2)c2cc[nH]c2c1=O | 4.70

tested on: COLO-741; assay: Cytotoxicity against human COLO-741 cells measured after 8 days; format: functional, cell-based; conditions: COLO-741, 192 h

SMILES | pIC50
C/C=C/Cn1cc(-c2ccc(C(=O)N3CCOCC3)cc2)c2cc[nH]c2c1=O | 4.70

tested on: NCI-H28; assay: Cytotoxicity against human NCI-H28 cells measured after 8 days; format: functional, cell-based; conditions: NCI-H28, 192 h

SMILES | pIC50
C/C=C/Cn1cc(-c2ccc(C(=O)N3CCOCC3)cc2)c2cc[nH]c2c1=O | 4.70

tested on: RKO; assay: Cytotoxicity against human RKO cells measured after 8 days; format: functional, cell-based; conditions: 192 h

SMILES | pIC50
C/C=C/Cn1cc(-c2ccc(C(=O)N3CCOCC3)cc2)c2cc[nH]c2c1=O | 4.70

tested on: SNU-C1; assay: Cytotoxicity against human SNU-C1 cells measured after 8 days; format: functional, cell-based; conditions: SNU-C1, 192 h

SMILES | pIC50
C/C=C/Cn1cc(-c2ccc(C(=O)N3CCOCC3)cc2)c2cc[nH]c2c1=O | 4.70

tested on: SW48; assay: Cytotoxicity against human SW48 cells measured after 8 days; format: functional, cell-based; conditions: SW48, 192 h

SMILES | pIC50
C/C=C/Cn1cc(-c2ccc(C(=O)N3CCOCC3)cc2)c2cc[nH]c2c1=O | 4.70

tested on: Hs 294T; assay: Cytotoxicity against human Hs294T cells measured after 8 days; format: functional, cell-based; conditions: 192 h

SMILES | pIC50
C/C=C/Cn1cc(-c2ccc(C(=O)N3CCOCC3)cc2)c2cc[nH]c2c1=O | 4.70

tested on: MEL-JUSO; assay: Cytotoxicity against human MEL-JUSO cells measured after 8 days; format: functional, cell-based; conditions: 192 h

SMILES | pIC50
C/C=C/Cn1cc(-c2ccc(C(=O)N3CCOCC3)cc2)c2cc[nH]c2c1=O | 4.70

tested on: DV-90; assay: Cytotoxicity against human DV-90 cells measured after 8 days; format: functional, cell-based; conditions: DV-90, 192 h

SMILES | pIC50
C/C=C/Cn1cc(-c2ccc(C(=O)N3CCOCC3)cc2)c2cc[nH]c2c1=O | 4.70

tested on: not listed separately; assay: Cytotoxicity against human HCC4019 cells measured after 8 days; format: functional, cell-based; conditions: HCC4019, 192 h

SMILES | pIC50
C/C=C/Cn1cc(-c2ccc(C(=O)N3CCOCC3)cc2)c2cc[nH]c2c1=O | 4.70

molecular target: T1, Bromodomain-containing protein 1 (Homo sapiens, UniProt O95696); assay: Binding affinity to human partial length BRD1 (E556 to A688 residues) expressed in bacterial expression system by BROMOscan assay; conditions: not given
T1 sequence (O95696 whole entry): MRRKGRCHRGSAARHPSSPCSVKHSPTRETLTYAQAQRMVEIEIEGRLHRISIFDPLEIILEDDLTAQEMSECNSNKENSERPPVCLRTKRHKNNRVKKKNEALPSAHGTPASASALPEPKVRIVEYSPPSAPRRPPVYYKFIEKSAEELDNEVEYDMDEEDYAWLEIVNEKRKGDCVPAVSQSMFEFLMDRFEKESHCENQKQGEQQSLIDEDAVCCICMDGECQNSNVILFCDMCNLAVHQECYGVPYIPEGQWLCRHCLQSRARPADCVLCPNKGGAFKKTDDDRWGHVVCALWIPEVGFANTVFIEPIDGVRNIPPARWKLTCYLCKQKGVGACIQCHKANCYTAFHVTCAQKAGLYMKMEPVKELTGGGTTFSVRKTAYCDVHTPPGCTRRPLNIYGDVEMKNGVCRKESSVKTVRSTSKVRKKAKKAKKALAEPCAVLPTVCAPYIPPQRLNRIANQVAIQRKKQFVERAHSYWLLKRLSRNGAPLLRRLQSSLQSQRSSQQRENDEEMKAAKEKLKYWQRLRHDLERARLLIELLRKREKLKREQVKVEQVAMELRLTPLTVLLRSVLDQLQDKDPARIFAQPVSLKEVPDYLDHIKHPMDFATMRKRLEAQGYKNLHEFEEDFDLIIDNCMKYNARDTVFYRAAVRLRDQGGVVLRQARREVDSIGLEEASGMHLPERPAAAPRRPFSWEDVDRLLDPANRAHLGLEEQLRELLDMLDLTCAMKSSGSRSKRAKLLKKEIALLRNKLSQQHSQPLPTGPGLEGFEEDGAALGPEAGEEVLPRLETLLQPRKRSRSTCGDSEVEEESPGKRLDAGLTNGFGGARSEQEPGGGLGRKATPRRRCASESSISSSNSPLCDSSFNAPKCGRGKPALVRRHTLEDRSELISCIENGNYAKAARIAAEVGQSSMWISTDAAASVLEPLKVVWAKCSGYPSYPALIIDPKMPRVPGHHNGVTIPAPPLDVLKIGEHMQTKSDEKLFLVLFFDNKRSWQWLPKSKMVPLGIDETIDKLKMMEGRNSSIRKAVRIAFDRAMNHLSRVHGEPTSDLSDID

SMILES | pKd
C/C=C/Cn1cc(-c2ccc(C(=O)N3CCOCC3)cc2)c2cc[nH]c2c1=O | < 5.00
C/C=C/Cn1cc(-c2cc(OC)c(C(C)(C)O)cc2OC)c2cc(C)[nH]c2c1=O | < 5.00

molecular target: Bromodomain-containing protein 4 (Homo sapiens, UniProt O60885); assay: Binding affinity to BRD4 bromodomain 1/2 long isoform (unknown origin) by BROMOscan assay; conditions: not given

SMILES | pKd
C/C=C/Cn1cc(-c2ccc(C(=O)N3CCOCC3)cc2)c2cc[nH]c2c1=O | 5.06
C/C=C/Cn1cc(-c2cc(OC)c(C(C)(C)O)cc2OC)c2cc(C)[nH]c2c1=O | < 5.00

molecular target: Bromodomain testis-specific protein (Homo sapiens, UniProt Q58F21); assay: Binding affinity to human partial length BRDT bromodomain 2 (K250 to E382 residues) expressed in bacterial expression system by BROMOscan assay; conditions: not given

SMILES | pKd
C/C=C/Cn1cc(-c2ccc(C(=O)N3CCOCC3)cc2)c2cc[nH]c2c1=O | 5.46
C/C=C/Cn1cc(-c2cc(OC)c(C(C)(C)O)cc2OC)c2cc(C)[nH]c2c1=O | 5.18

molecular target: Mitogen-activated protein kinase 14 (Homo sapiens) (UniProt Q16539); assay: Inhibition of p38alpha (unknown origin) at 1 uM relative to control; conditions: not given
Sequence (Q16539 whole entry): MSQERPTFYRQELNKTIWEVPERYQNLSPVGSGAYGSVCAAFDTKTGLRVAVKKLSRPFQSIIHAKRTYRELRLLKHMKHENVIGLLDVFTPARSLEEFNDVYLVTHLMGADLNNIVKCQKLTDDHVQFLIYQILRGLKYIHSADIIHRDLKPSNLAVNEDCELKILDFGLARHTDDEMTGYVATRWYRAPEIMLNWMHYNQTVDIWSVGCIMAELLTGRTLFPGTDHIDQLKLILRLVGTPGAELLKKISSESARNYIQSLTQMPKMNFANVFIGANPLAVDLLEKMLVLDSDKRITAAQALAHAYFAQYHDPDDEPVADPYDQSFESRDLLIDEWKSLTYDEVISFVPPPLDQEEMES

SMILES | inhibition [%]
C/C=C/Cn1cc(-c2ccc(C(=O)N3CCOCC3)cc2)c2cc[nH]c2c1=O | 0.9

molecular target: cAMP-dependent protein kinase (PKA) (Homo sapiens) (UniProt P22694+P17612+P22612); assay: Inhibition of PKA (unknown origin) at 1 uM relative to control; format: protein assay; conditions: not given

SMILES | inhibition [%]
C/C=C/Cn1cc(-c2ccc(C(=O)N3CCOCC3)cc2)c2cc[nH]c2c1=O | -6.8

molecular target: Proto-oncogene tyrosine-protein kinase receptor Ret (Homo sapiens) (UniProt P07949); assay: Inhibition of Ret (unknown origin) at 1 uM relative to control; conditions: not given
Sequence (P07949 whole entry): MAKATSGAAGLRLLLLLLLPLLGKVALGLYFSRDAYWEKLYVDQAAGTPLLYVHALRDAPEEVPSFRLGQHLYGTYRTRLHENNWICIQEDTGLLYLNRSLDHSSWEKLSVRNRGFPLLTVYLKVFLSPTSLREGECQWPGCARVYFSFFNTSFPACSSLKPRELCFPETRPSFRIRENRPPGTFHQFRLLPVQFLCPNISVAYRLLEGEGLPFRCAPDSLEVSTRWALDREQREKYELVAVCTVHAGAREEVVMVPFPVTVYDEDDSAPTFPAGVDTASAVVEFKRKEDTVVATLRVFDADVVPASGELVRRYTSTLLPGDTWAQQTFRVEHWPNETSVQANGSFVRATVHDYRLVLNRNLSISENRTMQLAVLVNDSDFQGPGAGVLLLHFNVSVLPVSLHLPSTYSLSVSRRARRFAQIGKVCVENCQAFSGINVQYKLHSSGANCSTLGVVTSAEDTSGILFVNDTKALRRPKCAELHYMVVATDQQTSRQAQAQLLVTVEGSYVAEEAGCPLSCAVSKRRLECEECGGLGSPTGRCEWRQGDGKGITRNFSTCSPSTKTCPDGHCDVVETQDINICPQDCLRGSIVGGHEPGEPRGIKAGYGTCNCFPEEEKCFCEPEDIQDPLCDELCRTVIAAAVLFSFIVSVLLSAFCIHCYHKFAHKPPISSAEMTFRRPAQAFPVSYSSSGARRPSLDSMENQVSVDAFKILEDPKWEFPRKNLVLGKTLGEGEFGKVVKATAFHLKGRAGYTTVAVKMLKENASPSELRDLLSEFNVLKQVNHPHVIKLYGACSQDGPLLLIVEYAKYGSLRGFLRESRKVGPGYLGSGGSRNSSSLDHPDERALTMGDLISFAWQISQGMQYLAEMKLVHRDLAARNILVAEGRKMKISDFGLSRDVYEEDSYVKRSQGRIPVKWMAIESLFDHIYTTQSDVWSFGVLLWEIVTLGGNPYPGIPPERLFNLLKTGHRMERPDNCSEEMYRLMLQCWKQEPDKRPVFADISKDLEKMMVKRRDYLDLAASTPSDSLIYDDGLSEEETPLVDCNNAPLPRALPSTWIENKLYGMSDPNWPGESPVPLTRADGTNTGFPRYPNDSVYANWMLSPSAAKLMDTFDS

SMILES | inhibition [%]
C/C=C/Cn1cc(-c2ccc(C(=O)N3CCOCC3)cc2)c2cc[nH]c2c1=O | -0.9

molecular target: Serine/threonine-protein kinase SIK2 (Homo sapiens) (UniProt Q9H0K1); assay: Inhibition of SIK2 (unknown origin) at 1 uM relative to control; conditions: not given
Sequence (Q9H0K1 whole entry, looked up): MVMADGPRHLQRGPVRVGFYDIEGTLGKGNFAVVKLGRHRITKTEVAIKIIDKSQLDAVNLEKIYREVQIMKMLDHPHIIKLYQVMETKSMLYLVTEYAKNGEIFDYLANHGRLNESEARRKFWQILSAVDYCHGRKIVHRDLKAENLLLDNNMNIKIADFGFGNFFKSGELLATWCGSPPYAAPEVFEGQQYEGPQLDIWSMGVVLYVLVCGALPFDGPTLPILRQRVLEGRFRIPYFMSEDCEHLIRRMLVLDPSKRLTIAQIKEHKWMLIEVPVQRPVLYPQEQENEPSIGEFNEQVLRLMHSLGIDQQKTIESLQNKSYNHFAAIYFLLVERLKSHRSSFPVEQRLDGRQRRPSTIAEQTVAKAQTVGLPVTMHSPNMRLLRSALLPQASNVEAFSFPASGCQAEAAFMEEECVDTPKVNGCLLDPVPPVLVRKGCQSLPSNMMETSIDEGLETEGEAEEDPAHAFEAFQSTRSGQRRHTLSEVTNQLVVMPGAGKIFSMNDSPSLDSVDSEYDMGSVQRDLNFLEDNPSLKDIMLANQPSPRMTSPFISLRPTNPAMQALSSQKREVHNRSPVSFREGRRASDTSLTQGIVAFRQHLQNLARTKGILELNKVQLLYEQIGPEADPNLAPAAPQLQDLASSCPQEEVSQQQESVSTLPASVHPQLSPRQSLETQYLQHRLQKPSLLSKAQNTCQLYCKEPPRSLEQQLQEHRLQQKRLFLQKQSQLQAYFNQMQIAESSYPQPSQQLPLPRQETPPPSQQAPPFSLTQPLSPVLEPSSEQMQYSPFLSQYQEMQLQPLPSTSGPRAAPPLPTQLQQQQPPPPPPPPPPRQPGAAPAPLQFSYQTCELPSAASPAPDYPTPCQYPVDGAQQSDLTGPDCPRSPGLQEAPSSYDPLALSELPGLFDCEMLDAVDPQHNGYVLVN

SMILES | inhibition [%]
C/C=C/Cn1cc(-c2ccc(C(=O)N3CCOCC3)cc2)c2cc[nH]c2c1=O | 2.8

molecular target: 5-hydroxytryptamine receptor 2A (Homo sapiens) (UniProt P28223); assay: Displacement of [3H]ketanserin human recombinant 5-HT2A receptor at 10 uM after 60 mins by scintillation counting analysis relative to control; conditions: not given
Sequence (P28223 whole entry): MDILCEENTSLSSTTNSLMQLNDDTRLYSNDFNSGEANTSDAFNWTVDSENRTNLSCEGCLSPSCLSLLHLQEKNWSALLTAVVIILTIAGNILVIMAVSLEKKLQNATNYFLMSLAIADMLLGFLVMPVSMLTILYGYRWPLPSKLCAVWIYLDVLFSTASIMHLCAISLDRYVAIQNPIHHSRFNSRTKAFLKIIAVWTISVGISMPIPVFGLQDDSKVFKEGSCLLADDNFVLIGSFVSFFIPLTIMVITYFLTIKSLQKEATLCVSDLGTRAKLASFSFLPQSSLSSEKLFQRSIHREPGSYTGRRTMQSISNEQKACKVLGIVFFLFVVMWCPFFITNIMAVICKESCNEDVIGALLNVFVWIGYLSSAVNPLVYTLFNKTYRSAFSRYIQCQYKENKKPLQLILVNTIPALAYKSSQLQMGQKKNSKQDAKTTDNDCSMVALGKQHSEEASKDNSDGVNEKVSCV

SMILES | Activity [%]
C/C=C/Cn1cc(-c2ccc(C(=O)N3CCOCC3)cc2)c2cc[nH]c2c1=O | 11

molecular target: 5-hydroxytryptamine receptor 2B (Homo sapiens) (UniProt P41595); assay: Displacement of [125I]+/-DOI from human recombinant 5-HT2B receptor at 10 uM after 60 mins by scintillation counting analysis relative to control; conditions: not given
Sequence (P41595 whole entry): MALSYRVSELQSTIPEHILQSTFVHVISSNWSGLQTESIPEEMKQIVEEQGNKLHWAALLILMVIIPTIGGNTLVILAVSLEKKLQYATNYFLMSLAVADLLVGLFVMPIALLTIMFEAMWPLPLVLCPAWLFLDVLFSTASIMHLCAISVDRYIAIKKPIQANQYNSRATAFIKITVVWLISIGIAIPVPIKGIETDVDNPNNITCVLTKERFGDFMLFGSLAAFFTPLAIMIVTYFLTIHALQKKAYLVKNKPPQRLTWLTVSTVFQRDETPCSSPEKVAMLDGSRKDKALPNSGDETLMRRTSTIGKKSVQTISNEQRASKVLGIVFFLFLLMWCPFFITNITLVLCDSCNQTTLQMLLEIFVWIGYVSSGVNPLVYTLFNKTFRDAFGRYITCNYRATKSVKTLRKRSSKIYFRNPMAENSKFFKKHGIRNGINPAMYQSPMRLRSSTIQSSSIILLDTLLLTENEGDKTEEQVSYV

SMILES | Activity [%]
C/C=C/Cn1cc(-c2ccc(C(=O)N3CCOCC3)cc2)c2cc[nH]c2c1=O | 22

species: Homo sapiens; assay: Displacement of [3H] Dofetilide from human potassium channel at 10 uM relative to control; conditions: not given

SMILES | Activity [%]
C/C=C/Cn1cc(-c2ccc(C(=O)N3CCOCC3)cc2)c2cc[nH]c2c1=O | 13
